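Five compound concentrations were applied to cells in 96-well plates for 48 hours; endpoints were derived by simple linear interpolation of the resulting dose-response curve. GI50 is the concentration that inhibits growth by half.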 The source made the active and inactive calls. Rule as the data show it: active = GI50 up to about 1.1 µM and inactive = higher.
Assays:
Test in all cases: NCI tumour cell line growth inhibition, 48 h
[1] = test system: CAKI-1
[2] = test system: HCC 2998
[3] = test system: HCT-116
[4] = test system: K562
[5] = test system: MDA-MB-435
[6] = test system: MOLT-4
[7] = test system: NCI/ADR-RES
[8] = test system: OVCAR-4
[9] = test system: PC-3
[10] = test system: SF-295
[11] = test system: SF-539
[12] = test system: SK-MEL-2
[13] = test system: SK-OV-3
[14] = test system: SNB-19
[15] = test system: SNB-75
[16] = test system: UACC-62
[17] = test system: HL-60

SMILES | GI50 [1] | GI50 [2] | GI50 [3] | GI50 [4] | GI50 [5] | GI50 [6] | GI50 [7] | GI50 [8] | GI50 [9] | GI50 [10] | GI50 [11] | GI50 [12] | GI50 [13] | GI50 [14] | GI50 [15] | GI50 [16] | GI50 [17]
C[C@@H]1CC[C@@H]2[C@@H](C1)O[C@@H]([C@H](C)OCc1ccccc1)SC2(C)C | 34.8 µM (inactive) | 17.9 µM (inactive) | 14.7 µM (inactive) | 19.6 µM (inactive) | 30.3 µM (inactive) | 18.4 µM (inactive) | 25.5 µM (inactive) | 28.3 µM (inactive) | 31.5 µM (inactive) | 17.5 µM (inactive) | 29.2 µM (inactive) | 17.5 µM (inactive) | 30.5 µM (inactive) | 21.3 µM (inactive) | 16.4 µM (inactive) | 36.4 µM (inactive) | –
COc1ccc(NC(=O)C(=O)Cc2nc3ccc(C(=O)c4ccccc4)cc3nc2O)c([N+](=O)[O-])c1 | 14.9 µM (inactive) | 29.8 µM (inactive) | 28.1 µM (inactive) | – | 12.1 µM (inactive) | 17.6 µM (inactive) | 11.5 µM (inactive) | 43.7 µM (inactive) | 18.5 µM (inactive) | 31.8 µM (inactive) | 33 µM (inactive) | 55.1 µM (inactive) | 52 µM (inactive) | 62.8 µM (inactive) | 17.7 µM (inactive) | 21.3 µM (inactive) | –
COc1ccc(NC(=S)N/N=C(\c2ccccc2)c2ccccn2)cc1 | 0.034 µM (active) | 2.42 µM (inactive) | < 0.01 µM (active) | < 0.01 µM (active) | 1.96 µM (inactive) | < 0.01 µM (active) | < 0.0904 µM (active) | 0.7 µM (active) | < 0.01 µM (active) | 0.121 µM (active) | 0.348 µM (active) | 2.5 µM (inactive) | 0.028 µM (active) | 2.84 µM (inactive) | – | 0.104 µM (active) | < 0.01 µM (active)
C=C(c1ccccc1)c1ccccc1-c1cc(-c2ccccc2)cc(-c2ccccc2)n1 | > 100 µM (inactive) | 98.6 µM (inactive) | 65.8 µM (inactive) | 53.6 µM (inactive) | 82.2 µM (inactive) | > 100 µM (inactive) | > 100 µM (inactive) | – | > 100 µM (inactive) | > 100 µM (inactive) | > 100 µM (inactive) | – | – | > 100 µM (inactive) | > 100 µM (inactive) | 74.6 µM (inactive) | 34.5 µM (inactive)
CC1=CC(=O)CC(C)(C)C1/C=C/C(C)=C/C=C/C(C)=C/C=C/C=C(C)/C=C/C=C(C)/C=C/C1C(C)=CC(=O)CC1(C)C (stereo not given) | 58.7 µM (inactive) | 53.1 µM (inactive) | 20.2 µM (inactive) | 37.2 µM (inactive) | 23.4 µM (inactive) | 50.1 µM (inactive) | 72.6 µM (inactive) | 41.1 µM (inactive) | 41.1 µM (inactive) | 92 µM (inactive) | 45.5 µM (inactive) | > 100 µM (inactive) | > 100 µM (inactive) | – | – | – | 38.5 µM (inactive)
C/C=C/C/C=C/CCC(=O)C1OC1C(N)=O (stereo not given) | 16.3 µM (inactive) | 17.3 µM (inactive) | 15 µM (inactive) | 15.9 µM (inactive) | 14.1 µM (inactive) | 13.2 µM (inactive) | 20 µM (inactive) | 11.6 µM (inactive) | 15.4 µM (inactive) | 15 µM (inactive) | 15.2 µM (inactive) | 18.6 µM (inactive) | 35.1 µM (inactive) | 18.2 µM (inactive) | 14.3 µM (inactive) | 15.9 µM (inactive) | –
O=c1[nH]n(Cc2ccccc2CCl)c2ccc([N+](=O)[O-])cc12 | 25 µM (inactive) | 21.7 µM (inactive) | 41.4 µM (inactive) | 42.4 µM (inactive) | 35.1 µM (inactive) | 26.6 µM (inactive) | 29.9 µM (inactive) | 37.1 µM (inactive) | 31.3 µM (inactive) | 37.8 µM (inactive) | 58.3 µM (inactive) | 43.4 µM (inactive) | 27.7 µM (inactive) | 48.9 µM (inactive) | – | 30.5 µM (inactive) | 26.6 µM (inactive)
Cn1c2ccccc2c2c3c(=O)[nH][nH]c(=O)c3c3c4ccccc4n(C)c3c21 | > 100 µM (inactive) | > 100 µM (inactive) | 78.3 µM (inactive) | 58.5 µM (inactive) | > 100 µM (inactive) | > 100 µM (inactive) | > 58.2 µM (inactive) | > 64.3 µM (inactive) | > 100 µM (inactive) | > 100 µM (inactive) | > 100 µM (inactive) | > 100 µM (inactive) | > 100 µM (inactive) | > 100 µM (inactive) | > 100 µM (inactive) | > 100 µM (inactive) | –
COC(=O)[C@@](NC(=O)OCc1ccccc1)([C@H](C)O)C(F)(F)F | > 100 µM (inactive) | > 100 µM (inactive) | > 100 µM (inactive) | > 100 µM (inactive) | > 100 µM (inactive) | > 100 µM (inactive) | > 100 µM (inactive) | > 100 µM (inactive) | > 100 µM (inactive) | > 100 µM (inactive) | – | > 100 µM (inactive) | > 100 µM (inactive) | > 100 µM (inactive) | > 100 µM (inactive) | > 100 µM (inactive) | > 100 µM (inactive)
COC(=O)c1c([N+](=O)[O-])ncn1[C@H]1OC[C@@H](OC(C)=O)[C@@H](OC(C)=O)[C@@H]1OC(C)=O | > 100 µM (inactive) | > 100 µM (inactive) | > 100 µM (inactive) | > 100 µM (inactive) | > 100 µM (inactive) | > 100 µM (inactive) | > 100 µM (inactive) | > 100 µM (inactive) | > 100 µM (inactive) | > 100 µM (inactive) | > 100 µM (inactive) | – | > 100 µM (inactive) | > 100 µM (inactive) | > 100 µM (inactive) | > 100 µM (inactive) | > 100 µM (inactive)
C/C(CC(O)(/C=N/O)c1ccccc1)=N/O (stereo not given) | > 100 µM (inactive) | > 100 µM (inactive) | > 100 µM (inactive) | > 100 µM (inactive) | > 100 µM (inactive) | > 100 µM (inactive) | 99.8 µM (inactive) | > 100 µM (inactive) | > 100 µM (inactive) | > 100 µM (inactive) | > 100 µM (inactive) | > 100 µM (inactive) | > 100 µM (inactive) | > 100 µM (inactive) | – | – | –
O=C(CSc1nnc(SCC(=O)NN=C2CCCCC2)s1)NN=C1CCCCC1 | > 100 µM (inactive) | > 100 µM (inactive) | > 100 µM (inactive) | > 100 µM (inactive) | > 100 µM (inactive) | > 100 µM (inactive) | > 100 µM (inactive) | > 100 µM (inactive) | > 100 µM (inactive) | > 100 µM (inactive) | > 100 µM (inactive) | – | > 100 µM (inactive) | > 100 µM (inactive) | > 100 µM (inactive) | > 100 µM (inactive) | –
COc1ccc(C2(O)c3ccccc3C(=O)N(C)C2(O)c2ccc(OC)cc2)cc1 (stereo not given) | 57.1 µM (inactive) | 49.3 µM (inactive) | 37.8 µM (inactive) | 55.8 µM (inactive) | 17.3 µM (inactive) | 24.7 µM (inactive) | 24 µM (inactive) | 25.2 µM (inactive) | 33.9 µM (inactive) | 32.9 µM (inactive) | > 100 µM (inactive) | 43.4 µM (inactive) | > 100 µM (inactive) | > 100 µM (inactive) | – | 48.1 µM (inactive) | 32.6 µM (inactive)

Source: ChEMBL document CHEMBL1201862, “PubChem BioAssay data set” (2004)
